{"source": "paper PMC12797238", "about": "(ACS Infectious Diseases, 2025)", "key": {"Human BJ Fibroblast": {"test_system": "Human BJ Fibroblast", "assay": "Drug sensitivity assay, dose–response curves, human BJ fibroblasts", "assay_type": "cell-based", "conditions": "mean, n ≥ 3", "text": "(§1) Human fibroblasts, T. brucei, T. gambiense, P. falciparum, L. mexicana, and B. divergens were cultivated as described previously, and dose–response curves were obtained by their cultivation on 96 well plates in a 2-fold seriel dilution of the appropriate drug."}, "[1]": {"test_system": "Trypanosoma brucei bloodstream forms", "assay": "Drug sensitivity assay, dose–response curves, T. brucei", "assay_type": "cell-based", "conditions": "for EC50: bloodstream forms, mean, n ≥ 3", "text": "as §1"}, "[2]": {"test_system": "Trypanosoma gambiense bloodstream forms", "assay": "Drug sensitivity assay, dose–response curves, T. gambiense", "assay_type": "cell-based", "conditions": "for EC50: bloodstream forms, mean, n ≥ 3; for T. gambiense selectivity: relative to fibroblasts", "text": "as §1"}, "[3]": {"test_system": "Leishmania mexicana axenic amastigotes", "assay": "Drug sensitivity assay, dose–response curves, L. mexicana", "assay_type": "cell-based", "conditions": "for EC50: axenic amastigotes, mean, n ≥ 3; for L. mexicana selectivity: relative to fibroblasts", "text": "as §1"}, "[4]": {"test_system": "Toxoplasma gondii tachyzoites (RH strain), intracellular stages", "assay": "T. gondii lytic cycle plaque assay in HFF monolayers", "assay_type": "cell-based", "conditions": "for EC50: intracellular stages, plaque assay in HFFs, 7 days, n ≥ 3; for T. gondii selectivity: relative to fibroblasts", "experimental": "T. gondii tachyzoites of the RH strain were routinely maintained through passages in a human foreskin fibroblasts (HFFs) monolayer (ATCC CRL-1634). HFFs and parasites were cultured in standard Dulbecco’s Modified Eagle Medium (DMEM), supplemented with 5% decomplemented fetal bovine serum (FBS), 2 mM L-glutamine, 100 U/mL penicillin, and 100 μg/mL streptomycin (Gibco) at 37 °C and with 5% CO2 in an incubator with a controlled atmosphere.\nThe lytic cycle of T. gondii tachyzoites was assessed by a plaque assay as described previously. Briefly, tachyzoites were allowed to invade monolayers of HFFs for 3 h before addition of the compounds or the DMSO vehicle and were subsequently cultivated for 7 days at 37 °C and 5% CO2. They were then fixed with 4% (w/v) paraformaldehyde (PFA, diluted in phosphate-buffered saline (PBS)) for 20 min and stained with a 0.1% crystal violet solution (V5265, Sigma-Aldrich), washed, and air-dried before imaging under an Olympus MVX10 microscope.\nFigure S1. EC50 determination of selected compounds in Toxoplasma.\nB) EC50 curves based on plaque\narea measured from three independent plaque assays. Data are mean ± standard deviation. C)\nvacuoles were counted for each con dition. Values represented are mean ± standard deviation of […]"}, "[5]": {"test_system": "Babesia divergens intracellular stages", "assay": "Drug sensitivity assay, dose–response curves, B. divergens", "assay_type": "cell-based", "conditions": "for EC50: intracellular stages, mean, n ≥ 3; for B. divergens selectivity: relative to fibroblasts", "text": "as §1"}, "[6]": {"test_system": "Plasmodium falciparum intracellular stages", "assay": "Drug sensitivity assay, dose–response curves, P. falciparum", "assay_type": "cell-based", "conditions": "for EC50: intracellular stages, mean, n ≥ 3; for P. falciparum selectivity: relative to fibroblasts", "text": "as §1"}, "[7]": {"test_system": "T. brucei 427 bloodstream form mitochondria", "assay": "Mitochondrial membrane potential in T. brucei (TMRE, flow cytometry)", "assay_type": "cell-based, Trypanosoma brucei", "conditions": "24 h at 3× EC50", "experimental": "The mitochondrial membrane potential of T. brucei 427 bloodstream form was assessed using the fluorescent probe TMRE (Thermo Fisher Scientific) as described in ref . […] Untreated cells and cells preincubated with a 50 μM CCCP uncoupler for 30 min were used as negative and positive controls, respectively. Approximately 1 × 10^6 cells were incubated with 60 nM TMRE for 30 min, washed 1× with sterile PBS, and 5,000 events were measured on a Guava EasyCyte 8HT flow cytometer (Luminex) using a 488 nm excitation laser and a 583/26 nm detector. Median fluorescence was plotted against an untreated culture using Prism 8.0 (GraphPad Software), and statistical significance was determined using RM one-way ANOVA with Geisser–Greenhouse correction. The experiment was performed in three biologically independent replicates."}, "[8]": {"test_system": "T. brucei 427 bloodstream forms, protein-bound iron", "assay": "Iron distribution in T. brucei (55Fe, blue native electrophoresis, phosphor imaging)", "assay_type": "cell-based, Trypanosoma brucei", "conditions": "T. brucei preincubated with 55Fe; 8 h exposure; EC90 concentrations for 14 and 15", "experimental": "The assay was performed as described in ref . T. brucei 427 bloodstream forms were grown in HMI-9 medium supplemented with 0.5 μM ^55Fe (29 600 MBq mg^–1) in the form of ferric citrate (1:20) and incubated for 24 h. […] Untreated cells were used as a control. After incubation, the cells were harvested by centrifugation and washed three times with NaCl–HEPES buffer (140 mM NaCl, 10 mM HEPES, pH 7.4). Cells were lysed by sonication in NaCl–HEPES buffer containing 1% digitonin and cOmplete EDTA-free protease inhibitor cocktail (Roche). Gels were vacuum-dried, autoradiographed for 5 days using a BAS-IP TR 2025 E tritium storage phosphor screen (GE Healthcare), and visualized with Typhoon FLA 7000 (GE Healthcare)."}, "[9]": {"test_system": "Toxoplasma tachyzoites mitochondrion", "assay": "Toxoplasma mitochondrial membrane potential (MitoTracker, cytometry and microscopy)", "assay_type": "cell-based, Toxoplasma gondii", "conditions": "24 h at 3× EC50; for T. gondii mitochondrial membrane potential, flow cytometric quantification of Mitotracker labeling: DFX at 60 nM; for Mitotracker staining of T. gondii, microscopic observation: FCCP as uncoupler control", "experimental": "We used the MitoTracker Deep Red FM fluorescent probe (Invitrogen) to assess the mitochondrial membrane potential in Toxoplasma tachyzoites. […] After another 24 h of culture at 37 °C and 5% CO2, Mitotracker labeling was performed as described in the protocol provided by the manufacturer, with a 45 min incubation at 37 °C and 5% CO2 of the reconstituted dye diluted to 1/1000 in culture medium. Parasites were then fixed for 30 min in 4% (w/v) PFA (diluted in PBS), washed twice in PBS, scraped, syringed (with a 25 G needle), filtered on a 40 μm membrane, and resuspended in 1 mL of PBS. Parasites were then analyzed with an Aurora spectral cytometer (Cytek), using a 633 nm excitation laser and a 665 nm detector. 10,000 events were recorded. Mean fluorescence was plotted against vehicle-treated culture parasites using Prism 8.0 (GraphPad Software), and statistical significance was determined using one-way ANOVA with Tukey’s multiple-comparison test. The experiment was performed for three biologically independent replicates. For the membrane depolarization control, parasites were treated with 10 μM FCCP for 30 min prior to and during incubation with the Mitotracker dye.\nIntracellular parasites and the host cell monolayer were then fixed 24 h later with 4% (w/v) PFA (diluted in PBS) for 20 min, and after fixation, cells were permeabilized with 0.3% (v/v) Triton X-100 (diluted in PBS) for 10 min. Costaining with the anti-F1β ATPase mitochondrial marker was performed as described below."}, "T. gondii mitochondrion": {"test_system": "T. gondii mitochondrion", "assay": "Toxoplasma immunofluorescence assay of organelle morphology", "assay_type": "cell-based, Toxoplasma gondii", "conditions": "24 h at 3× EC50; for morphology of the T. gondii mitochondrion: DFX at 60 nM", "experimental": "For IFAs to assess organelle morphology, coverslips seeded with HFFs were infected with T. gondii tachyzoites, and 3 h later, compounds were added (at 3 times their respective EC50). Intracellular parasites and host cell monolayers were then fixed 24 h later with 4% (w/v) PFA (diluted in PBS) for 20 min. After fixation, cells were permeabilized with 0.3% (v/v) Triton X-100 (diluted in PBS) for 10 min. Coverslips were blocked with 2% (w/v) bovine serum albumin (BSA) for 1 h prior to immunolabeling with a primary antibody for 1 h. After 3 washes in PBS, a corresponding secondary antibody was incubated for 1 h. Coverslips were then incubated with 1 μg/mL of Hoechst stain for 5 min before 3 washes in PBS and, finally, mounted using Immu-Mount (Thermo Fisher) onto microscope slides. Primary antibodies used were prepared in 2% BSA (diluted in PBS) and used at the following concentrations: the apicoplast was stained using rabbit anti-PDH-E2 (1:500), the mitochondrion was stained using mouse anti-F1β ATPase (1:1000, gift of P. Bradley). Anti-mouse and anti-rabbit secondary antibodies were all from Thermo Fisher and were diluted at 1:4000. Image acquisition was performed with a Zeiss Axio Observer inverted microscope equipped with a Zeiss Axiocam 712 camera and 63×/1.4 or 100×/1.4 Oil Plan Achromat objectives. Images were processed with Zen Blue v3.6 software (Zeiss). Z-stack acquisitions were processed by a maximum-intensity orthogonal projection. Adjustments of brightness and contrast were applied uniformly, and paired images were acquired with the same exposure time. Quantifications of mitochondrial morphology were performed by microscopic observation of a series of at least 100 parasites, and data from three independent biological replicates was acquired and plotted using Prism 8.0 (GraphPad Software). Statistical significance was determined using one-way ANOVA with Tukey’s multiple-comparison test."}, "T. gondii tachyzoites": {"test_system": "T. gondii tachyzoites", "conditions": "24 h treatment at 3× EC50", "quoted_text": "Parasites were allowed to invade an HFF monolayer on coverslips for 3 h before addition of the compounds (at 3 times their respective EC50) and left to grow for 24 h before being fixed and performing parasites immunodetection was by IFA with a mouse anti-SAG1 antibody, as described previously. The number of parasites per vacuole was counted and scored. Independent experiments were conducted 3 times, and 200 random vacuoles were counted for each condition.\nReplication assay of T. gondii tachyzoites, which were allowed to invade HFF -coated coverslips,\nthen treated for 24 h with the compounds at 3 times the EC50 or DMSO vehicle, after which number\nof parasites per vacuole was quantified for each condition and expressed as a percentage, 200\nthe compounds, using two -way ANOVA with Dunnett’s multiple comparison test."}}, "note": "Values joined by “and” are separate entries in the source; they are usually repeats but may differ in a detail not shown here. Identical values can stand only once.", "data": [{"compound": "O=C(NCCCCCCCCCC[P+](c1ccccc1)(c1ccccc1)c1ccccc1)c1ccc(-n2nc(-c3ccccc3O)nc2-c2ccccc2O)cc1.[Cl-]", "note": "[compound 14, triphenylphosphine-C10-DFX]", "values": [{"measurement": "EC50", "setting": "Human BJ Fibroblast", "value": 1710, "unit": "nM"}, {"measurement": "EC50", "setting": "[1]", "value": 4.2, "unit": "nM"}, {"measurement": "EC50", "setting": "[1]; listed as mitoDFX", "value": 4, "unit": "nM"}, {"measurement": "T. brucei selectivity", "setting": "[1]; relative to human BJ fibroblast EC50, listed as mitoDFX", "value": "> 300"}, {"measurement": "EC50", "setting": "[2]", "value": 10.4, "unit": "nM"}, {"measurement": "T. gambiense selectivity", "setting": "[2]", "value": 165}, {"measurement": "EC50", "setting": "[3]", "value": 52, "unit": "nM"}, {"measurement": "L. mexicana selectivity", "setting": "[3]", "value": 33}, {"measurement": "EC50", "setting": "[4]", "value": 17, "unit": "nM"}, {"measurement": "T. gondii selectivity", "setting": "[4]", "value": 101}, {"measurement": "EC50", "setting": "[5]", "value": 41.2, "unit": "nM"}, {"measurement": "B. divergens selectivity", "setting": "[5]", "value": 42}, {"measurement": "EC50", "setting": "[6]", "value": 54.8, "unit": "nM"}, {"measurement": "P. falciparum selectivity", "setting": "[6]", "value": 31}, {"measurement": "mitochondrial membrane potential of T. brucei (relative to untreated)", "setting": "[7]", "value": "less than 50%"}, {"measurement": "change in overall protein-bound iron distribution", "setting": "[8]", "value": "neither mitoDFX nor the nonchelating compound 15 did cause any detectable change"}, {"measurement": "T. gondii mitochondrial membrane potential, flow cytometric quantification of Mitotracker labeling", "setting": "[9]", "value": "most impactful"}, {"measurement": "Mitotracker staining of T. gondii, microscopic observation", "setting": "[9]", "value": "strong decrease in Mitotracker staining"}, {"measurement": "quantified mitochondrial morphology change (fragmented/collapsed) by IFA", "setting": "T. gondii mitochondrion", "value": "caused the collapse of most T. gondii mitochondria"}, {"measurement": "morphology of the T. gondii mitochondrion", "setting": "T. gondii mitochondrion", "value": "altered the morphology of the organelle"}, {"measurement": "impact on T. gondii replication (parasites per vacuole)", "setting": "T. gondii tachyzoites", "value": "particularly strong"}]}, {"compound": "CC(C)(C)OC(=O)NNc1ccc(C(=O)NCCCCCCCCCC[P+](c2ccccc2)(c2ccccc2)c2ccccc2)cc1.[Cl-]", "note": "[compound 15, triphenylphosphine-C10-NHCOBocFenylhydrazine]", "values": [{"measurement": "EC50", "setting": "Human BJ Fibroblast", "value": 7400, "unit": "nM"}, {"measurement": "EC50", "setting": "[1]", "value": "37 nM and 37.5 nM"}, {"measurement": "EC50", "setting": "[2]", "value": 60, "unit": "nM"}, {"measurement": "T. gambiense selectivity", "setting": "[2]", "value": 122}, {"measurement": "EC50", "setting": "[3]", "value": 348, "unit": "nM"}, {"measurement": "L. mexicana selectivity", "setting": "[3]", "value": 21}, {"measurement": "EC50", "setting": "[4]", "value": 350, "unit": "nM"}, {"measurement": "T. gondii selectivity", "setting": "[4]", "value": 21}, {"measurement": "EC50", "setting": "[5]", "value": 76.2, "unit": "nM"}, {"measurement": "B. divergens selectivity", "setting": "[5]", "value": 96}, {"measurement": "EC50", "setting": "[6]", "value": 311, "unit": "nM"}, {"measurement": "P. falciparum selectivity", "setting": "[6]", "value": 23}, {"measurement": "mitochondrial membrane potential of T. brucei (relative to untreated)", "setting": "[7]", "value": "less than 50%"}, {"measurement": "change in overall protein-bound iron distribution", "setting": "[8]", "value": "neither mitoDFX nor the nonchelating compound 15 did cause any detectable change"}, {"measurement": "T. gondii mitochondrial membrane potential, flow cytometric quantification of Mitotracker labeling", "setting": "[9]", "value": "most impactful"}, {"measurement": "Mitotracker staining of T. gondii, microscopic observation", "setting": "[9]", "value": "strong decrease in Mitotracker staining"}, {"measurement": "morphology of the T. gondii mitochondrion", "setting": "T. gondii mitochondrion", "value": "altered the morphology of the organelle"}]}]}
